Legend:
[1] = system: HCT116 colorectal cancer cells; assay: Crystal violet cytotoxicity assay; format: cell-based; settings: 72 h
Protocol: (§1) Human colon carcinoma cell lines SW480, HCT116, HT29 and Caco2, the human glioblastoma cell line U251MG and the Natural killer cell line NK-92 Cl were purchased from ATCC. Cell lines were regularly tested for contamination by multiplex PCR performed in the Genomics and Proteomics Core Facility 2 (DKFZ, Heidelberg, Germany). For experiments, cells were cultured for no more than 10 passages. Rho zero cells were generated as described earlier 1. (Gdynia, G. et al. Danger signaling protein HMGB1 induces a distinct form of cell death accompanied by formation of giant mitochondria. Cancer research 70, 8558-8568). Cells used in the experiments were cultured in RPMI (#1640, colon carcinomas, NK cells) or DMEM high glucose (#41965-039, glioblastoma cells) medium. Rho zero cells were generated as described earlier (Gdynia, G. et al. ibd.). Briefly, cells were cultured in RPMI medium (10% FCS, 1% P/S) supplemented with 250 ng/ml ethidiumbromide, 50 μg/ml L-pyruvate and 5 mg/ml uridine over a period of 12 weeks. For cytotoxicity measurements, cells were cultured in 96-well plates, treated with recombinant human HMGB1 protein (Sigma-Aldrich®), glycyrrhizinic acid ((3β, 18α)-30-hydroxy-11, 30-dioxoolean-12-en-3-yl 2-O-β-D-glucopyranuronosyl-β-D-glucopyranosiduronic acid)) (Sigma-Aldrich®), 10 μM (non-toxic) or 100 μM (cytotoxic) P-M2tide (aa sequence: GGAVDDDpYAQFANGG; #BML-P239-0001; Enzo Life Sciences) or 100 μM ML-265 (Cayman Chemical), then cell viability was assessed by crystal violet staining (Gillies, R. J., Didier, N. & Denton, M. Determination of cell number in monolayer cultures. Analytical biochemistry 159, 109-113 (1986)). Malic enzyme 1 knock-down was performed with 40 nM siRNA using lipofectamine in 6-well plates followed by treatment with 80 nM HMGB1 for 72 h. Sequences of siRNA were: ME1, 5′-[…]-3′ and scrambled control 5′-CCUGCAGUACUUCAAGCGGtt-3′. PKM2 siRNA was from Santa Cruz. A nonspecific siRNA served as control (Dharmacon, Schwerte, Germany). For overexpression of PKM2 or ME1, cells were transfected with pCMV-PKM2 (Sino Biological Inc., Beijing, China) or pCMV-ME1 (OriGene, Rockville, Md., USA) using Lipofectamine 2000. For cytotoxicity measurements confluent cells were cultured in 96-well plates if not otherwise indicated. Cytotoxic activity of supernatants from stimulated NK cells was assessed in 96-well plates for 3 days with RPMI medium as reference. Recombinant human HMGB1 (10 ng, Sigma) suited as positive control. For mass isotopomer assays, cells were cultured in glucose- or glutamine-free medium supplemented with either uniformly labeled (U)-13C-D-glucose or U-13C-glutamine (Sigma-Aldrich®).

[2] = system: HT29 cells; assay: Crystal violet cytotoxicity assay; format: cell-based
Protocol: as §1

[3] = system: SW480 colorectal cancer cells; assay: Crystal violet cytotoxicity assay; format: cell-based; settings: 72 h
Protocol: as §1

[4] = system: colorectal cancer cells; assay: Crystal violet cytotoxicity assay, cell lines not given; format: cell-based; settings: HMGB1 80 nM, 72 h
Protocol: as §1

[5] = system: mitochondrial oxygen consumption; assay: Mitochondrial (cyanide sensitive) respiration, Oroboros oxygraph; format: cell-based, human
Protocol: (§2) Lactate derived from the metabolism of ^13C6-D-glucose or ^13C5-glutamine was determined by comparing the CH3 group intensities of labeled and non-labeled lactate in NMR. Mitochondrial respiration was measured using an Oroboros 1 oxygraph system. Glycolysis was measured by monitoring the conversion of 5-^3H-Glucose to ^3H2O. Incorporation of ^14C into RNA ribose from U-^14C-labelled glucose was taken as glucose utilization in the pentose phosphate shunt. Enzymatic activities were determined in subcellular fractions as previously described^24.

[6] = system: ATP; assay: Cellular ATP after HMGB1 treatment; format: cell-based, human
[7] = system: glucose flux (glycolysis); assay: Glycolysis: conversion of 5-3H-Glucose to 3H2O; format: cell-based, human; settings: HMGB1 80 nM, 24 h
Protocol: as §2

[8] = system: glucose-6-phosphate; assay: Glucose-6-phosphate assay kit; format: cell-based, human; settings: HMGB1-treated cells
Protocol: Glucose-6-phosphate levels in cells were measured using the Glucose-6-phosphate assay kit (Sigma) according to the manufacturer's protocol.

[9] = system: HT29 cells; assay: Production of labeled CO2 (glucose and glutamine oxidation); format: cell-based, human; settings: HT29 cells after HMGB1 treatment
[10] = system: SW480 xenograft tumor; assay: Xenograft tumor growth in nude mice; format: in vivo, mouse; settings: 10 μg rhHMGB1 daily intraperitoneal for 2 weeks
Protocol: For animal studies six-week-old female and male athymic CD1 nude mice (Charles River, n=40) were injected subcutaneously with 5×10^6 SW480 or HT29 cells in 100 μl PBS in the right flank using a 30-gauge needle. Treatment was started when tumors were palpable. Daily intraperitoneal injections at the contralateral side for 2 weeks were done with 10 μg rhHMGB1 in 500 μl PBS or PBS only (control group) and/or 12.5 mg/kg/injection L-DON (Ovejera, A. A., Houchens, D. P., Catane, R., Sheridan, M. A. & Muggia, F. M. Efficacy of 6-diazo-5-oxo-L-norleucine and N-[N-gamma-glutamyl-6-diazo-5-oxo-norleucinyl]-6-diazo-5-oxo-norleucine against experimental tumors in conventional and nude mice. Cancer research 39, 3220-3224 (1979).). Tumor volume was measured by a calliper using the ellipsoid formula (length×width×height×½) as described (Tomayko, M. M. & Reynolds, C. P. Determination of subcutaneous tumor size in athymic (nude) mice. Cancer Chemother Pharmacol 24, 148-154 (1989).). After 2 weeks of treatment the animals were sacrificed.

[11] = NK cell derived HMGB1 approx. 16 nM, recombinant human HMGB1 80 nM

Substance: HMGB1: recombinant human HMGB1 protein (Sigma-Aldrich); High Mobility Group Box 1 polypeptide, human, SEQ ID NO: 4
- cell death (cytotoxicity) [1, 11]: efficiently killed
- sensitivity of respiratory chain deficient (ρ0) cells to HMGB1 ([1]; ρ0 HCT116, HMGB1 160 nM): almost completely resistant
- sensitivity of cells to HMGB1 ([2]; low to intermediate HMGB1 concentrations (16 to 80 nM)): resistant
- sensitivity towards HMGB1 cytotoxicity after down-regulation of ME1 ([2]; siRNA knock-down of ME1, HMGB1 80 nM, 72 h): sensitization
- cell death (cytotoxicity) [3, 11]: efficiently killed
- sensitivity of respiratory chain deficient (ρ0) cells to HMGB1 ([3]; ρ0 SW480, HMGB1 160 nM): almost completely resistant
- sensitivity of cells to HMGB1 after PKM2 down-regulation (siRNA) [4]: sensitized
- sensitivity of cells to HMGB1 after PKM2 overexpression [4]: more resistant
- inhibition of mitochondrial oxygen consumption ([5]; HCT116 cells, HMGB1 80 nM, 24 h): pronounced
- mitochondrial respiration ([5]; HT29 cells, HMGB1 80 nM, 24 h): only slightly reduced
- inhibition of mitochondrial oxygen consumption ([5]; SW480 cells, HMGB1 80 nM, 24 h): pronounced
- mitochondrial oxygen consumption ([5]; colorectal cancer tissue slices, HMGB1 160 nM, 72 h): strongly decreased
- ATP ([6]; HCT116 cells): substantial decrease
- ATP ([6]; SW480 cells): substantial decrease
- glucose flux (5-3H-glucose turn-over) [7]: reduced at the enolase reaction step
- glucose-6-phosphate level [8]: strong increase
- decrease of glucose oxidation [9]: ~50%
- increase of glutamine oxidation [9]: ~35%
- xenograft tumor growth [10]: inhibited
